This is an account of results in patent publication US4070484A, “Antiallergic composition containing aromatic carboxylic amide derivatives and method of using the same” (Kissei Pharmaceutical Co., Ltd., priority 1973, dated 1978).

The subject of data set [1] is homologous passive cutaneous anaphylaxis (antigen-antibody reaction). The data set is described as follows: Homologous Passive Cutaneous Anaphylaxis in Rats. Format: in vivo, rat (Wistar male). To be noted: 200 mg/kg orally 2 hours prior to the injection of antigen; for inhibition at 200 mg/kg: Rattus norvegicus, po. As for the experimental part:
Wistar male rats weighing 120-150 g were used in this experiment. […]. Normal rats were sensitized passively with dilution of the antibody by means of intradermal injection. After 48 hours of the sensitization, the mixture of antigen (EA) and evens blue was injected intravenously. The animals were killed by a blow on the head 30 minutes after the injection, and then the blue spot resulted from the antigen-antibody reaction was measured photometrically.
A given test compound dissolved in 1 % NaHCO3 solution was administrated in a dose of 200 mg/kg orally 2 hours prior to the injection of antigen, while only the vehicle solution was administered to the control group.
The efficacy of the test compounds to inhibit the homologous passive cutaneous anaphlaxis was compared with the value (%) calculated using the following formula: [formula] wherein A stands for the amount of leaked dye in control group and B for the amount of leaked dye in the group administered with a given test compound.

A short description of data set [2]: Acute Toxicity (LD50) in mice. Format: in vivo. To be noted: mouse, in vivo, po, mortality on the 8th day. The protocol: The median lethal dose (LD50) of the new aromatic carboxylic acid amide derivatives of this invention were determined in dd-stain male and female mice (6 weeks old) by oral administration and in Wistar strain male and female rats (7 weeks old) by oral and intraperitoneal administration. Each animal selected for the experiment was maintained in an air conditioned room at a temperature of 22° ± 1° C and a relative humidity of 55 ± 5% during the full course of the experiment. All animals were fed compressed pellets (CE-2 type produced by Japan CLEA Co.) and water was available ad libitum by bottle. Five groups of ten animals for each administration route were used.
Since these compounds were isoluble in water, they were suspended in a 0.5% aqueous solution of carboxymethylcellulose at each dosage level. The administrative volume of each agent to 10 g body weight mouse was 0.2 ml for oral administration, while that to 100g body weight of rat was 0.5 ml for intraperitoneal and oral administrations.
The LD50 values were calculated from the mortality on the 8th day by the Litchfield-Wilcoxon's method.

Data set [3] relates to antiallergic action, oral administration to mammalia. The data set is described as follows: Antiallergic action (general statements). Format: in vivo. The settings on record: general statement.
For a further data set, the system named is mast cells. To be noted: known art; cited from earlier work.
For data set [4], the system named is sensitized mesenteric mast cells. The data set is described as follows: Effect on the Disruption of the Sensitized Mast Cells. Format: cell-based, rat. To be noted: 10^-5 g/ml, 5 minutes prior to the treatment of antigen. The protocol: Mesenteric mast cells isolated from normal rats were sensitized passively by means of incubation with rat reaginic antibody at 37° C. After termination of the incubation, the specific antigen (DNP-Ascaris) was added to the incubation medium, then these mast cells in mesentery were fixed with formalin and stained with 0.1 % toluidine blue (in acetic acid buffer; pH: 4.6). The number of mast cells disrupted as a consequence of the antigen-antibody reaction were counted under a microscope. The number of the mast cells disrupted were also counted without the addition of the specific antigen.
A given test compound dissolved in 1 % NaHCO3 solution was added to the incubation medium at a concentration of 10^-5 g/ml, 5 minutes prior to the treatment of antigen, while only the vehicle was added to the control group.
The efficacy of the test compounds to inhibit the mast cell disruption was compared with the value (%) calculated using the following formula: [formula] wherein P stands for the percentage of disrupted mast cells in the control group, Q for the percentage of mast cells disrupted spontaneously and R for the percentage of disrupted mast cells in the group treated with a given test compound.

The compound `O=C(C=Cc1ccc(O)cc1)Nc1ccccc1C(=O)O` [compound 1, N-(4'-hydroxycinnamoyl)-anthranilic acid] gave an inhibition at 200 mg/kg in data set [1] of 36.7%.

On to `COc1cc(OC)c(OC)cc1C=CC(=O)Nc1ccccc1C(=O)O` [compound 52, N-(2',4',5'-trimethoxycinnamoyl)-anthranilic acid], for which at 200 mg/kg the inhibition in data set [1] was 56.8%.

For `O=C(C=Cc1ccccc1)Nc1cccc(C(=O)O)c1` [3-(cinnamoylamino)-benzoic acid, reference compound], in data set [1], testing at 200 mg/kg gave an inhibition of 10%.

The compound `Cc1ccc(C=CC(=O)Nc2ccccc2C(=O)O)cc1` [compound 42, N-(4'-methylcinnamoyl)-anthracilic acid] returned an inhibition at 200 mg/kg in data set [1] of 54%.

Regarding `COc1cccc(C=CC(=O)Nc2ccccc2C(=O)O)c1OC` [compound 31, N-(2',3'-dimethoxycinnamoyl)-anthranilic acid], in data set [1], the inhibition at 200 mg/kg was 56.8%.

For the compound `O=C(C=Cc1ccccc1Cl)Nc1ccccc1C(=O)O` [compound 22, N-(2'-chlorocinnamoyl)-anthranilic acid], the median lethal dose (LD50) at 192 h in data set [2] was found to be 343 mg/kg. The inhibition at 200 mg/kg in data set [1] came to 60.2%.

In the case of `O=C(C=Cc1ccc(Cl)cc1)Nc1ccccc1C(=O)O` [compound 20, N-(4'-chlorocinnamoyl)-anthranilic acid], the LD50 at 192 h in data set [2] came to 551 mg/kg. The inhibition at 200 mg/kg in data set [1] was 69.4%.

On to N-(4'-bromocinnamoylamino)-benzoic acid, for which, in data set [1], the “Inhibition (%)” value amounted to 32.3%.

`O=C(C=Cc1cccc(Cl)c1)Nc1ccccc1C(=O)O` [N-(3'-chlorocinnamoyl)-anthranilic acid] gave an LD50 at 192 h in data set [2] of 700 mg/kg.

`O=C(C=Cc1cccc(F)c1)Nc1ccccc1C(=O)O` [compound 29, N-(3'-fluorocinnamoyl)-anthranilic acid] gave a median lethal dose (LD50) at 192 h in data set [2] of 551 mg/kg. The compound also showed an inhibition at 200 mg/kg in data set [1] of 47.5%.

Consider `COc1cc(C=CC(=O)Nc2ccccc2C(=O)O)ccc1OCC(=O)O` [N-(3'-methoxy-4'-carboxylmethoxycinnamoyl)-anthranilic acid, reference compound], for which the inhibition at 200 mg/kg in data set [1] was 0%.

Regarding “Methylenedioxycinnamoylaminobenzoic acid”, the “antiallergic action / pharmacological activity (in words)” value in data set [3] is reported as “strong antiallergic action”.

As for “cinnamoylaminobenzoic acid [reference compound]”, in data set [3], the “antiallergic action / pharmacological activity (in words)” value is “only very weak antiallergic effect”.

The compound `O=C(C=Cc1ccccc1)Nc1ccc(C(=O)O)cc1` [4-(cinnamoylamino)-benzoic acid, reference compound] displayed an inhibition at 200 mg/kg in data set [1] of 7%.

In turn, `COc1cccc(C=CC(=O)Nc2ccc(C(=O)O)cc2)c1O` [compound 6, 4-(2'-hydroxy-3'-methoxycinnamoylamino)-benzoic acid] showed an inhibition at 200 mg/kg in data set [1] of 33.5%.

In data set [1], `COc1cccc(C=CC(=O)Nc2cccc(C(=O)O)c2)c1OC` [compound 60, 3-(2',3'-dimethoxycinnamoylamino)-benzoic acid] registered an inhibition at 200 mg/kg of 41.1%.

Consider `OCC(O)COc1ccc(Cl)cc1` (stereo not drawn) [Chlorphenesin, reference compound], for which the “inhibition of mast cell disruption (in words)” value with mast cells is recorded as “inhibitor of mast cell disruption”. The compound further showed an inhibition at 200 mg/kg in data set [1] of 36.7%.

Regarding `COc1cc(C=CC(=O)Nc2ccccc2C(=O)O)ccc1OCC(O)CO` (stereo not drawn) [N-[3'-methoxy-4'-(2,3-dihydroxypropoxy)-cinnamoyl]-anthranilic acid, reference compound], in data set [1], the inhibition at 200 mg/kg stood at 9%.

For `COc1ccc(C(C)=CC(=O)Nc2ccccc2C(=O)O)cc1OC` [N-(3',4'-dimethoxy-β-methylcinnamoyl)-anthranilic acid], the “Inhibition percentage (mast cell disruption)” value (from here on “Inhibition percentage”) in data set [4] is on record as 45%. This compound displayed an inhibition at 200 mg/kg in data set [1] of 66.2%.

As to `O=C(C=Cc1ccccc1)Nc1ccccc1C(=O)O` [N-cinnamoyl-anthranilic acid, reference compound], testing at 200 mg/kg in data set [1] gave an inhibition of 16.7%.

On to `COc1cccc(C=CC(=O)Nc2cccc(C(=O)O)c2)c1` [compound 15, 3-(3'-methoxycinnamoylamino)-benzoic acid], for which the “Inhibition percentage” value in data set [4] stood at 18%. The compound further yielded an inhibition at 200 mg/kg in data set [1] of 45%.

For `CCCOc1ccc(C=CC(=O)Nc2ccccc2C(=O)O)cc1OC` [compound 54, N-(3'-methoxy-4'-n-propoxycinnamoyl)-anthranilic acid], the “Inhibition percentage” value in data set [4] was determined as 37%. The inhibition at 200 mg/kg in data set [1] is 52.2%.

Regarding `O=C(C=Cc1ccc(F)cc1)Nc1ccccc1C(=O)O` [compound 28, N-(4'-fluorocinnamoyl)-anthranilic acid], in data set [2], the median lethal dose (LD50) at 192 h is 481 mg/kg.

On to `O=C(C=Cc1ccccc1F)Nc1ccccc1C(=O)O` [compound 30, N-(2'-fluorocinnamoyl)-anthranilic acid], for which the LD50 at 192 h in data set [2] was determined as 321 mg/kg.

With `COc1cc(C=CC(=O)Nc2ccccc2C(=O)O)ccc1OC(C)C` [compound 56, N-(3'-methoxy-4'-isopropoxycinnamoyl)-anthranilic acid], in data set [1], the inhibition at 200 mg/kg amounted to 47.1%.

In turn, `COc1ccc(CCC(=O)Nc2ccccc2C(=O)O)cc1OC` [compound 67, N-(3',4'-dimethoxylhydrocinnamoyl)-anthranilic acid] gave an inhibition at 200 mg/kg in data set [1] of 55.4%.
